Measured values reported in US8415378B2, “Isoxazol-3(2H)-one analogs as therapeutic agents” (AstraZeneca AB, priority 2009, dated 2013).

Molecular target: T1, human Glu-plasminogen (Homo sapiens, UniProt P00747)
T1 construct: human Glu-plasminogen; purchased Chromogenix, Italy
Assay: Clot-lysis buffer assay
Assay type: biochemical
Description: The assay method used for evaluating biological activity of the compounds according to the invention was Clot-lysis buffer assay.
Tested substance were added to the reaction mixture in 10% DMSO. Reaction was started by the addition of thrombin.
Measured according to the Clot-lysis buffer assay described above.

T1 sequence (P00747 20-810 limits assumed): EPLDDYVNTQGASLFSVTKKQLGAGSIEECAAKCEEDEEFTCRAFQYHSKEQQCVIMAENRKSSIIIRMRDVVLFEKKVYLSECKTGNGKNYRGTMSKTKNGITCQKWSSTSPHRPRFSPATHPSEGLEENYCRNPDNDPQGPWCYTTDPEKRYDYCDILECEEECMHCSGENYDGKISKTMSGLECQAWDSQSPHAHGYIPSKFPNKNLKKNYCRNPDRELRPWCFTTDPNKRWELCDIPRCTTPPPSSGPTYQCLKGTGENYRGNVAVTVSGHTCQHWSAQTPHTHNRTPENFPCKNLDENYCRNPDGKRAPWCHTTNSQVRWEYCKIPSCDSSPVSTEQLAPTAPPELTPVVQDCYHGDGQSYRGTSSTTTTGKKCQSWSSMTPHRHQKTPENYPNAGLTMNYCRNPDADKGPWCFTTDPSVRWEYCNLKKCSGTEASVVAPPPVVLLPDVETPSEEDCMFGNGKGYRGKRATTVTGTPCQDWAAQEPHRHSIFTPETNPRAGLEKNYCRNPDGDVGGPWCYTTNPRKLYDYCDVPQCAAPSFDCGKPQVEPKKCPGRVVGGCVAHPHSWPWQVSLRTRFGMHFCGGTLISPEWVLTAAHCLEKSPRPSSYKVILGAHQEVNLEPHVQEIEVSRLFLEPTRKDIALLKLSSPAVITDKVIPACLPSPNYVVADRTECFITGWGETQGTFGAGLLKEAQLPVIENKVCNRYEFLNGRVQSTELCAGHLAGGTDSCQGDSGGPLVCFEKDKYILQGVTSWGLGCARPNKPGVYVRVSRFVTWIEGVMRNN

| IC50 | SMILES |
| --- | --- |
| 7.5 µM | O=c1cc([C@@H]2CCN[C@@H](c3cc(F)c(Cl)c(F)c3)C2)o[nH]1 (relative stereo) [Example 66, 5-(Trans-2-(4-chloro-3,5-difluorophenyl)piperidin-4-yl)isoxazol-3(2H)-one] |
| 40 µM | O=c1cc([C@@H]2CCN[C@@H](c3cc(Cl)cc(Cl)c3)C2)o[nH]1 (relative stereo) [Example 57, 5-(Trans-2-(3,5-dichlorophenyl)piperidin-4-yl)isoxazol-3(2H)-one] |
| 2.25 µM | CC(C)(C)c1ccc(C[C@H]2C[C@@H](c3cc(=O)[nH]o3)CCN2)cc1 [Example 12, 5-((2R,4S)-2-(4-tert-Butylbenzyl)piperidin-4-yl)isoxazol-3(2H)-one] |
| 225 µM | CS(=O)(=O)c1ccc(C[C@@H]2C[C@H](c3cc(=O)[nH]o3)CCN2)cc1 [Example 118, 5-((2S,4R)-2-(4-(Methylsulfonyl)benzyl)piperidin-4-yl)isoxazol-3(2H)-one] |
